Assay results published in publication PMC9205463 (Cell reports, 2022).

Target: DDX41 (Homo sapiens, UniProt Q9UJV9)
Settings: labelled compound ([γ-32P]ATP)

DDX41, sequence (Q9UJV9 whole entry): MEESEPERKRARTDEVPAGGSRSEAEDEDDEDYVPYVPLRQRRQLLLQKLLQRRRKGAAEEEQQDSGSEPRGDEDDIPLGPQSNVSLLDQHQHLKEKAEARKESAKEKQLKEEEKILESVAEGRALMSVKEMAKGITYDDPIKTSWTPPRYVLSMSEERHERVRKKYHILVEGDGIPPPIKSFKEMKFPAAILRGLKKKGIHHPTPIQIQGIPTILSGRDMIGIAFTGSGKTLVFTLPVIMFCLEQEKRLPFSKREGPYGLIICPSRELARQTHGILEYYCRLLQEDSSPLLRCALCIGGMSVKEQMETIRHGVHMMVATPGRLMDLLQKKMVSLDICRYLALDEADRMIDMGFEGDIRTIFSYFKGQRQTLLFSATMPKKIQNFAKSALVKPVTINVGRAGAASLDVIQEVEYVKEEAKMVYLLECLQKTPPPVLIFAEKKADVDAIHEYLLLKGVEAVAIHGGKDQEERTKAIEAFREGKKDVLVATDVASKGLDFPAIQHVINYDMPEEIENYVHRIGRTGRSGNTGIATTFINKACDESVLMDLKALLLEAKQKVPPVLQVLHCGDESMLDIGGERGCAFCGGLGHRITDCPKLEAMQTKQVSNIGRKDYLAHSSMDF

Q: Which “filter binding (dot blot); ATP-agarose pull-down” value does the source give for Nc1ncnc2c1ncn2[C@@H]1O[C@H](COP(=O)(O)OP(=O)(O)OP(=O)(O)O)[C@@H](O)[C@H]1O [ATP] here?
A: we incubated the same amount of WT or R525H proteins with ATP agarose
